Reference: patent publication US20050143927A1, “Method for estimating or predicting the anti-tumor activity of a compound and for estimating or predicting the tumor growth in mammals” (Pharmacia Italia S.p.A., priority 2002, published 2005)

System: GTL16 (human stomach carcinoma)
Assay: Tumor growth model for treated subjects, GTL16 inoculated subcutaneously in athymic nude mice (Experiment-A)
Type: in vivo
Description: The cell line GTL16 (human stomach carcinoma) was inoculated subcutaneously on the back of 44 athymic nude male mice, initially weighing 17.9-28.1 g.
The dimensions of the tumor can be taken applying different types of measurements broadly classifiable as measurements of linear dimensions, of volume (or mass) and cell number. For tumors that maintain more or less a spherical morphology, as in the case of solid tumors, the measurement of the three principal diameters results the most adequate, as well as the most practiced solution. Nevertheless, in the case of subcutaneous tumors, the tumor can be considered of spherical shape only during the initial phase of growth; in the following phases, the dimension perpendicular to the skin is generally much smaller than the percutaneous dimensions, conferring to the mass a plaque-like shape or an hemi-ellipsoidal shape. In the experiments taken into consideration, only the dimensions of the two percutaneous diameters were directly measured with vernier calipers. The third dimension was not directly measured, because of the limited accessibility (which would have required a greater invasiveness), in the assumption that two measures were anyhow sufficient to guarantee a good approximation of the tumor mass (K. Rygaard and M. Spang-Thomsen, “Quantitation and Gompertzian analysis of tumor growth”. Breast Cancer Research and Treatment, 46: 303-312,1997).
The volume of a tumor can be indirectly calculated by applying the following empirical formula: [formula] where DMIN and DMAX denote, respectively, the smallest and the largest percutaneous diameter. Such empirical formula hypothesizes that the neoplasia has an ellipsoidal shape (D. A. Cameron, W. M. Gregory, A. Bowman, E. D. C. Anderson, P. Levack, P. Forouhi and R. F. C. Leonard, “Identification of long-term survivors in primary breast cancer by dynamic modeling of tumour response”. British Journal of Cancer, 83(1): 98-103, 2000, Hammond, L. A.; Hilsenbeck, S. G.; Eckhardt, S. G.; Marty, J; Mangold, G.; MacDonald, G. R.; Rowinsky, E. K.; Von Hoff, D. D; Weitman S. Enhanced antitumour activity of 6-hydroxymethylacylfulvene in combination with topotecan or paclitaxel in the MV522 lung carcinoma xenograft model. European Journal of Cancer 2000, 36, 2430-2436) obtained by the rotation of a hemi-ellipsoid (with DMIN and DMAX as axes of the percutaneous plane) around its largest axe. Assuming δ as a constant density equal to δ=10^−3g/mm^3, the empirical expression for the mass of the neoplasia results to be: [formula] The Measurement Error Model
As it regards the model of tumor growth, the error model above introduced is instead known. For the observed measurements of a generic quantity y (for instance the weight of the tumor), the constant coefficient of variation error model (3.5 and 3.6) asserts that the standard deviation of the error varies linearly with the dimension the measured quantity. With an error model of this kind, the technique of the weighed least squares (Weighed Least Squares, WLS), described in M. E. Dagna, “Identificazione di modelli farmacocinetici di popolazione”; Università degli Studi di Pavia 1999, herein incorporated as far as the WLS technique is concerned, is more adequate.

[1] = mean of the twelve treated mice (20, 30, 40 mg/kg q4dx3)
[2] = mouse 0, 20 mg/kg iv-bolus q4dx3
[3] = mouse 26, 40 mg/kg iv-bolus q4dx3
[4] = mouse 28, 30 mg/kg iv-bolus q4dx3
[5] = mouse 31, 20 mg/kg iv-bolus q4dx3
[6] = mouse 55, 20 mg/kg iv-bolus q4dx3
[7] = mouse 59, 30 mg/kg iv-bolus q4dx3
[8] = mouse 64, 30 mg/kg iv-bolus q4dx3
[9] = mouse 69, 20 mg/kg iv-bolus q4dx3
[10] = mouse 78, 40 mg/kg iv-bolus q4dx3
[11] = mouse 80, 40 mg/kg iv-bolus q4dx3
[12] = mouse 81, 40 mg/kg iv-bolus q4dx3
[13] = mouse 88, 30 mg/kg iv-bolus q4dx3
[14] = treated mouse 0, 20 mg/kg iv-bolus q4dx3
[15] = treated mouse 26, 40 mg/kg iv-bolus q4dx3
[16] = treated mouse 28, 30 mg/kg iv-bolus q4dx3
[17] = treated mouse 31, 20 mg/kg iv-bolus q4dx3
[18] = treated mouse 55, 20 mg/kg iv-bolus q4dx3
[19] = treated mouse 59, 30 mg/kg iv-bolus q4dx3
[20] = treated mouse 64, 30 mg/kg iv-bolus q4dx3
[21] = treated mouse 69, 20 mg/kg iv-bolus q4dx3
[22] = treated mouse 78, 40 mg/kg iv-bolus q4dx3
[23] = treated mouse 80, 40 mg/kg iv-bolus q4dx3
[24] = treated mouse 81, 40 mg/kg iv-bolus q4dx3
[25] = treated mouse 88, 30 mg/kg iv-bolus q4dx3

CC(=O)O[C@H]1C(=O)[C@@]2(C)[C@H]([C@H](OC(=O)c3ccccc3)[C@]3(O)C[C@H](OC(=O)[C@H](O)[C@@H](NC(=O)c4ccccc4)c4ccccc4)C(C)=C1C3(C)C)[C@]1(OC(C)=O)CO[C@@H]1C[C@@H]2O [Drug-A, paclitaxel]
K1, mean [1]: 0.1879 day⁻¹
K2, mean [1]: 0.002921 mL/g/day
λ0, mean [1]: 0.2467
λ1, mean [1]: 0.1274
K1 (index of the tumor cells death rate) [2]: 0.2057 day⁻¹
K2 (index of the potency of the compound) [2]: 0.01878 mL/g/day
K1 (index of the tumor cells death rate) [3]: 0.1658 day⁻¹
K2 (index of the potency of the compound) [3]: 0.00315 mL/g/day
K1 (index of the tumor cells death rate) [4]: 0.1406 day⁻¹
K2 (index of the potency of the compound) [4]: 0.000759 mL/g/day
K1 (index of the tumor cells death rate) [5]: 0.2683 day⁻¹
K2 (index of the potency of the compound) [5]: 0.003356 mL/g/day
K1 (index of the tumor cells death rate) [6]: 0.2424 day⁻¹
K2 (index of the potency of the compound) [6]: 0.002721 mL/g/day
K1 (index of the tumor cells death rate) [7]: 0.192 day⁻¹
K2 (index of the potency of the compound) [7]: 0.000563 mL/g/day
K1 (index of the tumor cells death rate) [8]: 0.1646 day⁻¹
K2 (index of the potency of the compound) [8]: 0.001085 mL/g/day
K1 (index of the tumor cells death rate) [9]: 0.1515 day⁻¹
K2 (index of the potency of the compound) [9]: 0.001361 mL/g/day
K1 (index of the tumor cells death rate) [10]: 0.2056 day⁻¹
K2 (index of the potency of the compound) [10]: 0.001507 mL/g/day
K1 (index of the tumor cells death rate) [11]: 0.209 day⁻¹
K2 (index of the potency of the compound) [11]: 0.000178 mL/g/day
K1 (index of the tumor cells death rate) [12]: 0.2206 day⁻¹
K2 (index of the potency of the compound) [12]: 0.000314 mL/g/day
K1 (index of the tumor cells death rate) [13]: 0.08819 day⁻¹
K2 (index of the potency of the compound) [13]: 0.001276 mL/g/day
LAMBDA0 (production rate of tumor cells, exponential phase) [14]: 0.2601
LAMBDA1 (tumor cells mass produced in the time unit, linear phase) [14]: 0.1563
LAMBDA0 (production rate of tumor cells, exponential phase) [15]: 0.2087
LAMBDA1 (tumor cells mass produced in the time unit, linear phase) [15]: 0.1678
LAMBDA0 (production rate of tumor cells, exponential phase) [16]: 0.2396
LAMBDA1 (tumor cells mass produced in the time unit, linear phase) [16]: 0.16
LAMBDA0 (production rate of tumor cells, exponential phase) [17]: 0.2726
LAMBDA1 (tumor cells mass produced in the time unit, linear phase) [17]: 0.08095
LAMBDA0 (production rate of tumor cells, exponential phase) [18]: 0.2377
LAMBDA1 (tumor cells mass produced in the time unit, linear phase) [18]: 0.07223
LAMBDA0 (production rate of tumor cells, exponential phase) [19]: 0.2458
LAMBDA1 (tumor cells mass produced in the time unit, linear phase) [19]: 0.07275
λ0 (production rate of tumor cells, exponential phase) [20]: 0.2565
λ1 (tumor cells mass produced in the time unit, linear phase) [20]: 0.18
λ0 (production rate of tumor cells, exponential phase) [21]: 0.2464
λ1 (tumor cells mass produced in the time unit, linear phase) [21]: 0.1782
λ0 (production rate of tumor cells, exponential phase) [22]: 0.2438
λ1 (tumor cells mass produced in the time unit, linear phase) [22]: 0.1276
λ0 (production rate of tumor cells, exponential phase) [23]: 0.234
λ1 (tumor cells mass produced in the time unit, linear phase) [23]: 0.05985
λ0 (production rate of tumor cells, exponential phase) [24]: 0.2723
λ1 (tumor cells mass produced in the time unit, linear phase) [24]: 0.0685
λ0 (production rate of tumor cells, exponential phase) [25]: 0.2431
λ1 (tumor cells mass produced in the time unit, linear phase) [25]: 0.2049
